Counter-ions that a name gives are not always drawn.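 Grown in 96-well plates, cells were treated for 48 hours with each compound at five concentrations. Insufficient inhibition: endpoint recorded as highest concentration tested. GI50: concentration for 50% inhibition of growth.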 The source made the active and inactive calls. Cut-off read from the data, not from the text of the source: active = GI50 up to about 1.1 µM and inactive = higher.
Tests used:
Assay in all cases: NCI anticancer screen, dose series, 48 h
HT-29 = system: HT-29
UACC-62 = system: UACC-62
SNB-19 = system: SNB-19
OVCAR-3 = system: OVCAR-3
NCI-H460 = system: NCI-H460
OVCAR-8 = system: OVCAR-8
DU-145 = system: DU-145
SK-MEL-28 = system: SK-MEL-28
SN12C = system: SN12C
Malme-3M = system: Malme-3M
A549 = system: A549
UO-31 = system: UO-31
MCF7 = system: MCF7
CAKI-1 = system: CAKI-1
MDA-MB-231 = system: MDA-MB-231
LOX IMVI = system: LOX IMVI
SF-268 = system: SF-268
PC-3 = system: PC-3
SNB-75 = system: SNB-75
HL-60 = system: HL-60

Measured: GI50

CCOP(=O)(OCC)/C(C#N)=C/c1cccn1C
inactive: HT-29 > 100 µM | UACC-62 > 100 µM | SNB-19 > 100 µM | OVCAR-3 > 100 µM | NCI-H460 > 100 µM | OVCAR-8 > 100 µM | DU-145 > 100 µM | SK-MEL-28 > 100 µM | SN12C > 100 µM | Malme-3M > 100 µM | A549 > 100 µM | UO-31 41.6 µM | MCF7 > 100 µM | CAKI-1 > 100 µM | MDA-MB-231 > 100 µM | LOX IMVI > 100 µM | SF-268 > 100 µM | PC-3 > 100 µM | SNB-75 > 100 µM

COc1cc2c(cc1OC)C(Cc1ccccc1CCCl)=NCC2
inactive: HT-29 6.85 µM | UACC-62 34.2 µM | SNB-19 55.3 µM | OVCAR-3 > 100 µM | NCI-H460 21.9 µM | OVCAR-8 47.2 µM | DU-145 > 100 µM | SK-MEL-28 > 100 µM | SN12C > 100 µM | A549 57.9 µM | UO-31 31.3 µM | MCF7 49.4 µM | CAKI-1 76.6 µM | MDA-MB-231 > 100 µM | HL-60 19.8 µM | SF-268 53 µM | PC-3 31.1 µM | SNB-75 30.3 µM

CN(C)CCOC(=O)COc1ccc(Cl)cc1 [CENTROPHENOXINE HYDROCHLORIDE]
inactive: HT-29 > 100 µM | UACC-62 > 100 µM | SNB-19 > 100 µM | OVCAR-3 > 100 µM | NCI-H460 > 100 µM | OVCAR-8 > 100 µM | DU-145 > 100 µM | SK-MEL-28 > 100 µM | SN12C > 100 µM | Malme-3M > 100 µM | A549 > 100 µM | UO-31 > 100 µM | MCF7 38.8 µM | CAKI-1 > 100 µM | MDA-MB-231 > 100 µM | LOX IMVI > 100 µM | SF-268 > 100 µM | PC-3 > 100 µM | SNB-75 52.8 µM

CC1OC(OC2C(O[C@@H]3C[C@@H]4CC[C@@H]5[C@H](CC[C@]6(C)[C@@H]7[C@H](C[C@@H]56)O[C@]5(CC[C@@H](C)CO5)[C@H]7C)[C@@]4(C)C[C@H]3O)OC(CO)C(OC3OC(CO)C(O)C(O)C3O)C2O)C(O)C(O)C1O (stereo partly specified)
inactive: HT-29 1.53 µM | UACC-62 1.92 µM | SNB-19 1.79 µM | OVCAR-3 1.65 µM | NCI-H460 1.76 µM | OVCAR-8 1.52 µM | DU-145 2.08 µM | SK-MEL-28 1.75 µM | SN12C 1.68 µM | Malme-3M 1.29 µM | A549 1.57 µM | UO-31 2.12 µM | MCF7 1.85 µM | CAKI-1 1.78 µM | MDA-MB-231 1.8 µM | HL-60 1.91 µM | SF-268 1.84 µM | PC-3 1.52 µM | SNB-75 2.25 µM

Cc1ccc(CCCCCOc2ccc(C3=NCCO3)cc2)s1
inactive: HT-29 > 100 µM | UACC-62 > 100 µM | SNB-19 > 100 µM | OVCAR-3 > 100 µM | NCI-H460 > 100 µM | OVCAR-8 > 100 µM | DU-145 > 100 µM | SK-MEL-28 > 100 µM | SN12C > 100 µM | Malme-3M > 100 µM | A549 > 100 µM | UO-31 > 100 µM | MCF7 > 100 µM | CAKI-1 > 100 µM | MDA-MB-231 > 100 µM | HL-60 > 100 µM | SF-268 > 100 µM | PC-3 > 100 µM | SNB-75 > 100 µM

CCCC(C)c1c(Cl)nc(Cl)nc1Cl (stereo unspecified)
inactive: HT-29 11.4 µM | UACC-62 > 10 µM | SNB-19 18.2 µM | OVCAR-3 9.57 µM | NCI-H460 11 µM | OVCAR-8 19.1 µM | DU-145 15 µM | SK-MEL-28 3.52 µM | SN12C 7.94 µM | Malme-3M 8.45 µM | A549 10.1 µM | UO-31 19.5 µM | MCF7 8.55 µM | MDA-MB-231 9.27 µM | HL-60 2.1 µM | LOX IMVI 1.66 µM | SF-268 10.3 µM | PC-3 14.8 µM | SNB-75 14.5 µM

Cc1cc(OCc2nn(CN3CCN(C)CC3)c(=S)n2/N=C/c2ccc(-c3ccc(Cl)cc3Cl)o2)ccc1Cl
inactive: HT-29 28.2 µM | OVCAR-3 80 µM | NCI-H460 67.8 µM | OVCAR-8 44 µM | DU-145 > 100 µM | SK-MEL-28 33.1 µM | UO-31 57.1 µM | MCF7 39.4 µM | CAKI-1 47.9 µM | MDA-MB-231 97.5 µM | HL-60 22.3 µM | LOX IMVI 80.7 µM | SF-268 33.1 µM | PC-3 85.3 µM

CC(=O)NC1=CC(=O)C=C(Cl)C1=O
inactive: HT-29 > 100 µM | UACC-62 37.5 µM | SNB-19 > 100 µM | OVCAR-3 > 100 µM | NCI-H460 > 100 µM | OVCAR-8 > 100 µM | DU-145 > 100 µM | SK-MEL-28 > 100 µM | SN12C > 100 µM | Malme-3M 25.7 µM | A549 > 100 µM | UO-31 > 100 µM | MCF7 28.7 µM | CAKI-1 > 100 µM | MDA-MB-231 > 100 µM | HL-60 20.9 µM | SF-268 > 100 µM | PC-3 > 100 µM | SNB-75 > 100 µM

From ChEMBL document CHEMBL1201862, “PubChem BioAssay data set” (2004)
